Experimental data reported in patent US20090061515A1, “Methods of inhibiting or suppressing cellular proliferation” (priority 2007, published 2009).

Test system: Human Coronary Artery Endothelial Cells (HCAEC)
Test: CyQuant cell number / proliferation, HCAEC (Example 7)
Format: cell-based
Settings: 1 mg/ml, after 96 hours post agent treatment, not following 24 hours exposure only
Procedure: Cells were exposed to the test compounds for 24 to 48 hours and then allowed to grow for 96 hours in regular media (without test compound). The final concentrations for cell treatment were as follows: compounds 13358-18-1, 13358-18-2, 13358-18-4, and 13358-18-6 were evaluated at 10 mg/ml, 1 mg/ml, 100 micrograms/ml, and 10 micrograms/ml. Compounds 13358-18-3 and 13358-18-5 were evaluated at 50 mg/ml, 10 mg/ml, 1 mg/ml, and 100 micrograms/ml.
Three assays were used to look at the proliferation, viability and cytotoxicity of the compounds on the cells. A non-radioactive cytotoxicity assay available under the trade designation CytoTox 96 from Promega Corporation (Madison, Wis.) is designed to determine the cytotoxicity of a substance by quantitatively measuring the presence of lactate dehydrogenase (LDH) in cell culture supernatant. LDH is released in cells that are undergoing cell death and the assay converts it to a red formazan product that can allows for the proportional amount of LDH absorbance to be read. A cell proliferation assay available under the trade designation CyQuant from Invitrogen Corporation (Carlsbad, Calif.) determines the density of cells in culture by eluding a green fluorescent dye which fluoresces when bound to cellular nucleic acids. The amount of nucleic acid present is proportional to the amount of living cells in culture, therefore an accurate cell count can be obtained. A luminescent cell viability assay available under the trade designation CellTiter-Glo from Promega Corporation (Madison, Wis.) uses the amount ATP present in the cell cytoplasm as an indicator for metabolic activity. The amount of ATP present is proportional to the measured amount of a luminescent signal. This assay was used to confirm if the cells are still viable after exposure to the test compounds.

Row | Structure (SMILES) | cell number and viability
1 | CC(=O)OCC(O)CO (stereo not drawn) [Compound 13358-18-5, 2,3-dihydroxy-propyl acetate] | some antiproliferative effect with viable cells
2 | O=C1CCCCC1CC(O)CO (stereo not drawn) [Compound 13358-18-4, 2-(2′,3′-dihydroxypropyl)-cyclohexanone] | some antiproliferative effect with viable cells
3 | CC(=O)CCC(O)C(O)c1ccccc1 (stereo not drawn) [Compound 13358-18-1, 5,6-dihydroxy-6-phenyl-hexan-2-one] | some antiproliferative effect with viable cells
